In assay [1] the target is Mitogen-activated protein kinase kinase kinase 20 (Homo sapiens) (UniProt Q9NYL2). As to the kind of experiment: Selectivity interaction (KinomeScan (DiscoverX)) EUB0000595a MAP3K20. To be noted: at 10 µM.
Assay [2] has as its target T1, Megakaryocyte-associated tyrosine-protein kinase (Homo sapiens) (UniProt P42679).
T1 sequence (whole entry): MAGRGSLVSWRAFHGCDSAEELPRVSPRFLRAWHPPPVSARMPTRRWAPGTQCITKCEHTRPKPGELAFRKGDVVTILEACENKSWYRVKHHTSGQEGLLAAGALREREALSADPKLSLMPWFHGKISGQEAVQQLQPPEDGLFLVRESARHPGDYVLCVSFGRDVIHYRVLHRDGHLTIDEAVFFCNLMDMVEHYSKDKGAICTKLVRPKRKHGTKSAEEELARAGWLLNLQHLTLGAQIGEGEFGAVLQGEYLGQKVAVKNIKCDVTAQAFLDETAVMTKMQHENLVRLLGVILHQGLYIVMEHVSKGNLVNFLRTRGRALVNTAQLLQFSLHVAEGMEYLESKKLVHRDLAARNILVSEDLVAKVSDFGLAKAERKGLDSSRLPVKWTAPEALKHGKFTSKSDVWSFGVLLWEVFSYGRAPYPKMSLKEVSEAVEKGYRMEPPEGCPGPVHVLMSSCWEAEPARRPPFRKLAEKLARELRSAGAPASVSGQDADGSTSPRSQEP
As to the kind of experiment: Selectivity interaction (KinomeScan (DiscoverX)) EUB0001619a MATK. Particulars: at 1 µM.

Assay [3] deals with Mitogen-activated protein kinase 4 (Homo sapiens) (UniProt P31152). As to the kind of experiment: Selectivity interaction (KinomeScan (DiscoverX)) EUB0001619a MAPK4. To be noted: at 1 µM.
The target of assay [4] is Wee1-like protein kinase 2 (Homo sapiens) (UniProt P0C1S8). As to the kind of experiment: Selectivity interaction (KinomeScan (DiscoverX)) EUB0000666a WEE2. Particulars: at 10 µM.
In assay [5] the target is Serine/threonine-protein kinase mTOR (Homo sapiens, UniProt P42345). Kind of assay: Selectivity interaction (KinomeScan (DiscoverX)) EUB0000607a MTOR. To be noted: at 10 µM.
Assay [6] concerns the target Cyclin-dependent kinase 3 (Homo sapiens) (UniProt Q00526). Particulars: at 10 µM.
Assay [7] concerns the target Serine/threonine-protein kinase MARK2 (Homo sapiens) (UniProt Q7KZI7). As to the kind of experiment: Selectivity interaction (ActivX KiNativ screen (kinase selectivity in THP-1 cell lysates)) EUB0000639a MARK2. Particulars: lysate, at 0.04 µM. It is filed as subcellular.
Assay [8] has as its target T2, Serine/threonine-protein kinase ULK2 (Homo sapiens) (UniProt Q8IYT8).
T2 sequence (whole entry): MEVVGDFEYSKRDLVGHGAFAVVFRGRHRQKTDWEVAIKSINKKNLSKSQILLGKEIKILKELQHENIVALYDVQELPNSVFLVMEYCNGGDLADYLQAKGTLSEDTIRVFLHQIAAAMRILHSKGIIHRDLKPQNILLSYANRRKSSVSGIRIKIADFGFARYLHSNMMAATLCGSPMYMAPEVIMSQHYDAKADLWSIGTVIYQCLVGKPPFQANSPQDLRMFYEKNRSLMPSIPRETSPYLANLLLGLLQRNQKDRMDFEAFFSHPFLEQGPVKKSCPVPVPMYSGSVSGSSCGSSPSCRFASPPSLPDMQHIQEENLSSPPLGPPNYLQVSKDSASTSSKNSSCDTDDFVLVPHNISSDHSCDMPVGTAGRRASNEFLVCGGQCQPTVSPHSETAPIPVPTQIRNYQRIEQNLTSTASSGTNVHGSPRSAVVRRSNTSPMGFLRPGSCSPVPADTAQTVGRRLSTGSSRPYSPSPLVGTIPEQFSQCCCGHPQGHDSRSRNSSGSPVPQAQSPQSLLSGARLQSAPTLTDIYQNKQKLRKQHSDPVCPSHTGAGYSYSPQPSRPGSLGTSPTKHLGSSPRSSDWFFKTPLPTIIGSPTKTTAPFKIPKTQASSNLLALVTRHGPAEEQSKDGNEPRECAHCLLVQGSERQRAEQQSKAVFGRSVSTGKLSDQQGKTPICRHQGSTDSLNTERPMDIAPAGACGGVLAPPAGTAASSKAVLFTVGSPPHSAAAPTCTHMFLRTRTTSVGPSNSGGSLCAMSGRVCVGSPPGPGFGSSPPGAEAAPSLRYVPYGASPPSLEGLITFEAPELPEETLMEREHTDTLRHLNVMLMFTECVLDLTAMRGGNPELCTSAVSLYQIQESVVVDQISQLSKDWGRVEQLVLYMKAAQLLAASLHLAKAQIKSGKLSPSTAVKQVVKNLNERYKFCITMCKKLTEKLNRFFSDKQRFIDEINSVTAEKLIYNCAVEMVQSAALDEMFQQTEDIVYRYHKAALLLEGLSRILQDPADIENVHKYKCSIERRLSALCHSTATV
As to the kind of experiment: Selectivity interaction (KinomeScan (DiscoverX)) EUB0000045b ULK2.

The subject of assay [9] is Epidermal growth factor receptor (Homo sapiens), P00533 [UNDEFINED MUTATION]. Kind of assay: Selectivity interaction (KinomeScan (DiscoverX)) EUB0000045b EGFR. To be noted: at 1 µM.
The test system of assay [10] is Mast/stem cell growth factor receptor Kit (Homo sapiens), P10721 [V559D,T670I]. As to the kind of experiment: (§1) Selectivity interaction (Ambit KINOMEscan and KiNATiv profiling in Jurkat cells) EUB0000090b KIT. Type of assay: cell-based. To be noted: at 1 µM.
Assay [11] relates to Mast/stem cell growth factor receptor Kit (Homo sapiens), P10721 [D816V]. The description is as §1. It is filed as cell-based. To be noted: at 1 µM.
Mast/stem cell growth factor receptor Kit (Homo sapiens), P10721 [D816V], sequence (P10721 whole entry D816V): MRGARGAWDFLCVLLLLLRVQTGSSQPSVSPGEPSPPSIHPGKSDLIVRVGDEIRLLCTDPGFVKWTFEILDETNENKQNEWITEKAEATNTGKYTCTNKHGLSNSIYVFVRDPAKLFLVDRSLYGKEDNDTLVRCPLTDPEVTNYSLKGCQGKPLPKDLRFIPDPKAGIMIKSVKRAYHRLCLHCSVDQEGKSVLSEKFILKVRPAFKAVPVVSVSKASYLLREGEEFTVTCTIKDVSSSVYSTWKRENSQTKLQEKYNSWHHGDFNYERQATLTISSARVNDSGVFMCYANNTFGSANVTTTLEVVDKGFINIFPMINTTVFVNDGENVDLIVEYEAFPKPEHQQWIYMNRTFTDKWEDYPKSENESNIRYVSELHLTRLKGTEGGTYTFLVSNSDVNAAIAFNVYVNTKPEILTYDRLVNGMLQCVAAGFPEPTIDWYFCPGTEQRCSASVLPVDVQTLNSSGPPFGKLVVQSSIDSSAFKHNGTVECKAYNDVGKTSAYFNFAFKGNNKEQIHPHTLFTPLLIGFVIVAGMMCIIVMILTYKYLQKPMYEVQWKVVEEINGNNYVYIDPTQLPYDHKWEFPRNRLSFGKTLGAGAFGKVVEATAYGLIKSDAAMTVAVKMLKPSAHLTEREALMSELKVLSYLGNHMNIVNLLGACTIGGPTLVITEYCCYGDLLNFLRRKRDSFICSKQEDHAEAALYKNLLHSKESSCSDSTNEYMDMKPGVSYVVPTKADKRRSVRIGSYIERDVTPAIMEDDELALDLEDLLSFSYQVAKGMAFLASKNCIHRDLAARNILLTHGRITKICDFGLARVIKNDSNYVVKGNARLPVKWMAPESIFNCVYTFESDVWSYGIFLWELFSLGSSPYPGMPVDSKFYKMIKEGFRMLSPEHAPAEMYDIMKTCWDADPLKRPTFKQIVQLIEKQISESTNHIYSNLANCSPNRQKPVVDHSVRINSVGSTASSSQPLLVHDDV
The subject of assay [12] is Mast/stem cell growth factor receptor Kit (Homo sapiens), P10721 [V559D,V654A]. The description is as §1. It is filed as cell-based. To be noted: at 1 µM.
The target of assay [13] is Mast/stem cell growth factor receptor Kit (Homo sapiens, UniProt P10721). The assay is described as §1. Type of assay: cell-based. To be noted: at 1 µM.
In assay [14] the test system is Mast/stem cell growth factor receptor Kit (Homo sapiens), P10721 [D816H]. Described as §1. To be noted: at 1 µM. Type of assay: cell-based.
The subject of assay [15] is Mast/stem cell growth factor receptor Kit (Homo sapiens), P10721 [V559D]. The description is as §1. Type of assay: cell-based. To be noted: at 1 µM.
The subject of assay [16] is Mast/stem cell growth factor receptor Kit (Homo sapiens), P10721 [L576P]. Described as §1. Type of assay: cell-based. To be noted: at 1 µM.
Assay [17] relates to Mast/stem cell growth factor receptor Kit (Homo sapiens), P10721 [A829P]. The description is as §1. Type of assay: cell-based. To be noted: at 1 µM.
Assay [18] has as its target Serine/threonine-protein kinase 24 (Homo sapiens) (UniProt Q9Y6E0). As to the kind of experiment: Selectivity interaction (Upstate Kinase Profiler service (Millipore)) EUB0000056c STK24. To be noted: at 1 µM.
For assay [19], the target named is Dual specificity protein kinase CLK3 (Homo sapiens, UniProt P49761). Kind of assay: Selectivity interaction (KinomeScan (DiscoverX)) EUB0000092b CLK3. To be noted: at 10 µM.
Dual specificity protein kinase CLK3, sequence (P49761 whole entry, looked up): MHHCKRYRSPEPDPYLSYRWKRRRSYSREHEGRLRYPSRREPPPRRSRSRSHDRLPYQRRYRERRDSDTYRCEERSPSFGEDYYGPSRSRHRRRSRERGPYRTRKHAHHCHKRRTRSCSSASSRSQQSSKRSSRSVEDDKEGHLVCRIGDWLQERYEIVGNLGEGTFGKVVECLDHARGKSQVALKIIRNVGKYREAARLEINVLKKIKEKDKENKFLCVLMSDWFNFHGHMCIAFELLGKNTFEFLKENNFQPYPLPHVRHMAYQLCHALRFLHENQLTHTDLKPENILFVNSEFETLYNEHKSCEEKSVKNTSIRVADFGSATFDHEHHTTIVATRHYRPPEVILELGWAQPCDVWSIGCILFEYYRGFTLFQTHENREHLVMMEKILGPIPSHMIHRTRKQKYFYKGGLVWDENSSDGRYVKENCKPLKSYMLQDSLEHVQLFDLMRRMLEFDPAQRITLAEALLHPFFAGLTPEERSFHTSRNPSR

Cyclin-dependent kinase 3 (Homo sapiens), sequence (Q00526 whole entry, looked up): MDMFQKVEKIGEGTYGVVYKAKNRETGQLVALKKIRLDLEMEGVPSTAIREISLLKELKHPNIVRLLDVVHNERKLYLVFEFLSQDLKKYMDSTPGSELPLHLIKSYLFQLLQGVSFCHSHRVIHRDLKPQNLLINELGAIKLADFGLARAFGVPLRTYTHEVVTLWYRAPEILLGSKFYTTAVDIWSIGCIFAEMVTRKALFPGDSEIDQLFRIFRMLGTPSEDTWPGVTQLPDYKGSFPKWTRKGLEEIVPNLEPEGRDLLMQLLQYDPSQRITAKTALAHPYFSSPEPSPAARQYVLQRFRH
Epidermal growth factor receptor (Homo sapiens), P00533 [UNDEFINED MUTATION], sequence (P00533 whole entry, looked up, stated change not applied): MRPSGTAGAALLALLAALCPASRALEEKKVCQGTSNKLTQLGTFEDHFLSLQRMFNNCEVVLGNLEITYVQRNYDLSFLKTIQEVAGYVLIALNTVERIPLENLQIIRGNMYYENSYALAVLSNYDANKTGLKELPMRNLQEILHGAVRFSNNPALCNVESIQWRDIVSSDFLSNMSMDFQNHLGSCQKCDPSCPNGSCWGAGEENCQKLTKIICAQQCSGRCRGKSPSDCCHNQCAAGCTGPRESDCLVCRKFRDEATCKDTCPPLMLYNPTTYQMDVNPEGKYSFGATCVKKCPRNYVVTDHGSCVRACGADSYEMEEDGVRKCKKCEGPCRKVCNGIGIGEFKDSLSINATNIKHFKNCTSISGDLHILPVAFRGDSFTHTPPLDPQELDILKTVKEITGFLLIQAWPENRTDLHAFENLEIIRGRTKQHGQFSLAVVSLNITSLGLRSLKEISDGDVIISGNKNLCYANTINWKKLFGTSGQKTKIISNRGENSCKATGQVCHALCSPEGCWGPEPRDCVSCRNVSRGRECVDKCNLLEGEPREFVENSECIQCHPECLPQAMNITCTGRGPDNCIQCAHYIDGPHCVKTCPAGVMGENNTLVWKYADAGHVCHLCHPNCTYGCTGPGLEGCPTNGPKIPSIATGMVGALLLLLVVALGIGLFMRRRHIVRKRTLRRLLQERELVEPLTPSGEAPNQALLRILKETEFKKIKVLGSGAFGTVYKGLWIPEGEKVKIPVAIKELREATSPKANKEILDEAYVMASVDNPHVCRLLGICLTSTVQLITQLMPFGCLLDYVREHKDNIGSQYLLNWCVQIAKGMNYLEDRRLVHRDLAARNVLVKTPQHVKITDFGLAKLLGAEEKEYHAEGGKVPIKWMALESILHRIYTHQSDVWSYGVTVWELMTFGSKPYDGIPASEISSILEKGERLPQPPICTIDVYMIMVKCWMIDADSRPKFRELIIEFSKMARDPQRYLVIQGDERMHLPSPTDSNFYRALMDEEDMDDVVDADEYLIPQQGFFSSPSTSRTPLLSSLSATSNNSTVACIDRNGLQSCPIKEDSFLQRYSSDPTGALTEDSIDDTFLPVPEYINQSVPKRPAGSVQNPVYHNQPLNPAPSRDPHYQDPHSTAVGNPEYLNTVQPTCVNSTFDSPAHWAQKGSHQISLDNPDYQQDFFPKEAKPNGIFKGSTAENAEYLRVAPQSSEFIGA
Mast/stem cell growth factor receptor Kit (Homo sapiens), P10721 [V559D], sequence (P10721 whole entry V559D): as the sequence (P10721 whole entry D816V) above, with V559D, V816D counted along it
Serine/threonine-protein kinase MARK2 (Homo sapiens), sequence (Q7KZI7 whole entry): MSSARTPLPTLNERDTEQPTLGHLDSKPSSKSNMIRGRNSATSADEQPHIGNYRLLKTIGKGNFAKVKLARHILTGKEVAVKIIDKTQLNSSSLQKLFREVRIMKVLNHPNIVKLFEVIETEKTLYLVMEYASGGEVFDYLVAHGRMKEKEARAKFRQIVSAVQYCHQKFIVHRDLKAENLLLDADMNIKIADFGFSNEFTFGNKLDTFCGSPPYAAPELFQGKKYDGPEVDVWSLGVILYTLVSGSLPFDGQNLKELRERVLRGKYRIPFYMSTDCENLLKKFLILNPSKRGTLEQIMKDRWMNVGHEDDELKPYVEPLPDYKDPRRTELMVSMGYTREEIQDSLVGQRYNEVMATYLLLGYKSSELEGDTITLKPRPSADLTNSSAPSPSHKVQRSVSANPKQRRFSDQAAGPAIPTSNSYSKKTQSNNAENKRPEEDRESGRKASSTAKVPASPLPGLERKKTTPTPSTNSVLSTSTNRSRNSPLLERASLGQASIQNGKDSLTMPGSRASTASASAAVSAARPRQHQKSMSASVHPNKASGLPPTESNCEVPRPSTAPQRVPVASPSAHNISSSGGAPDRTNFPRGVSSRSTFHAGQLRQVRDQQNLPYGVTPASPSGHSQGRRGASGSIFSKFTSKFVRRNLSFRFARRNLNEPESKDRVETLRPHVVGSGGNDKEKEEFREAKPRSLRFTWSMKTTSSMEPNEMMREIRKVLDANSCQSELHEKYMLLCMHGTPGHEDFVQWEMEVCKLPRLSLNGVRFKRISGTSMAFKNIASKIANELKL

`COCC(=O)NC/C=C/c1ccc2ncnc(Nc3ccc(Oc4ccc(C)nc4)c(C)c3)c2c1` [CP-724714] displayed a % of control in assay [1] of 76%.
As for `N#Cc1cccc(-c2c[nH]c3ncnc(N4CCOCC4)c23)c1`, the % of control is 82% in assay [2] and 95% in assay [3].
As for `O=C(NOC[C@H](O)CO)c1ccc(F)c(F)c1Nc1ccc(I)cc1F`, in [4], the % of control turned out to be 77%.
The compound `CNC(=O)Nc1ccc(-c2nc(N3CC4CCC(C3)O4)c3cnn(C4CCC5(CC4)OCCO5)c3n2)cc1` registered a % of control in assay [5] of 5.7%.
In the case of `Cc1cc([C@@H](C)Nc2ccccc2C(=O)O)c2nc(N3CCOCC3)cc(=O)n2c1` [AZD-6482], in assay [6], the % of control is 100%.
Regarding `CC[C@@H]1[C@H](F)C(=O)N[C@@H]1COc1nccc2cc(C(N)=O)c(OC)cc12` [ZIMLOVISERTIB], the % of inhibition in [7] came out at 0.7%.
Regarding `C=CC(=O)Nc1cc(-n2c(=O)ccc3cnc4ccc(-c5ccc(NS(C)(=O)=O)cc5)cc4c32)ccc1C`, the % of control amounted to 100% in assay [8] (at 1 µM), 92% in [8] (at 10 µM) and 51% in [9].
As for `CN(C)C/C=C/C(=O)Nc1ccc(C(=O)N2CCCC(Nc3ncc(Cl)c(-c4c[nH]c5ccccc45)n3)C2)cc1` (stereo not given), the % of control in [10] was 95%; in assay [11], 92%; in assay [12], 74%; in assay [13] it was 93%; in assay [14] it was 76%; in assay [15] it was 82%. Also, the values for the % of control in assay [16] and in assay [17] were 82% and 75%, respectively.
In [18], `Cc1ccc(-c2ccc3c(ccc4sc5c(c43)NC[C@@H](C)NC5=O)n2)cn1` yielded a % of inhibition of 33%.
Take `CCC(=O)N1CCN(c2ccc(-n3c(=O)ccc4cnc5ccc(-c6cnc7ccccc7c6)cc5c43)cc2C(F)(F)F)CC1`: in [19], the % of control amounted to 43%.

(Values after ChEMBL document CHEMBL5465560, “Selectivity Literature for EUbOPEN Chemogenomic Library” (2024).)
